Laboratory results taken from patent US11198869B2, “Angelman syndrome antisense treatment” (The Texas A&M University System, priority 2017, dated 2021).
Where two headings read alike, the source gives them in different places.

System: UBE3A-AS
Test: UBE3A-AS steady state RNA (TaqMan qRT-PCR) in GABAergic iPSC-derived neurons
Assay type: cell-based, human
Conditions: for Difference, UBE3A-AS RNA level / UBE3A-AS RNA levels relative to the control treatment (in words): ASOs 10 μM; for decrease of UBE3A-AS RNA levels: 10 μM; for low concentration that significantly reduced UBE3A-AS RNA levels: human iPSC-derived neurons; for Relative Potency: relative to ASO 4.S = 1
Description: Human-specific ASOs were then designed to target this region, which included four ASOs targeting non-polymorphic regions in human and regions conserved (100%) with macaque (Rhesus and Cynomolgus) (Table 7 and FIG. 3A). Human induced pluripotent stem cell (iPSC) neural precursor cells were differentiated into GABAergic neurons for 14 DIV and then treated with a control ASO [ASO-C (10 μM, n=3)], Topotecan [Topo (1 μM, n=2)], and six ASOs targeting UBE3A-AS [ASO-1, ASO-2, ASO-3, ASO-4, ASO-5, and ASO-6 (10 μM, n=3)]. Additionally, an ASO targeting an intronic region downstream of SNORD109B was included (ASO-7). Six days post-treatment (20 DIV), RNA was isolated from the neurons and the steady state RNA levels of UBE3A-AS and UBE3A were estimated relative to the control treatment (FIG. 3B).
The potency of ASO-4 was further examined given its effect on UBE3A-AS RNA levels. GABAergic iPSC-derived neurons were treated at 14 DIV with a 10-point ½ log dose response curve of ASO-4 and Topotecan, as a positive control and for comparisons between treatment [1 nM, 3 nM, 10 nM, 30 nM, 100 nM, 300 nM, 1 μM, 3 μM, 10 μM, and 30 μM (ASO-4, n=6; Topotecan, n=2)]. At 20 DIV, the steady state RNA levels of UBE3A-AS were measured and dose response curves fitted to estimate the IC50 and Emax (i.e., maximum UBE3A-AS inhibition) (Table 9 and FIG. 4A). […]
Additional ASOs targeting the 5′-end of UBE3A-AS were then designed to optimize the target sequences of ASO-4 (ASO-4.1, ASO-4.2, ASO-4.3, and ASO-4.4) as well as two other target regions, ASO-3 (ASO-3.1 and ASO-3.2) and ASO-6 (ASO-6.1) (Table 11). Additionally, ASO-4 was manufactured at two different vendors for comparative purposes (ASO-4.S, Sigma; ASO-4.I, Integrated DNA Technologies). Human iPSC-derived neurons (GABAergic) were treated at 14 DIV with a […] ½ log dose curve of ASO-3.1, ASO-3.2, ASO-4.S, ASO-4.I, ASO-4.1, ASO-4.2, ASO-4.3, ASO-4.4, and ASO-6.1 [30 nM, 100 nM, 300 nM, 1 μM (n=6)]. At 20 DIV, the IC50 and Emax of each ASO was estimated as described above (FIG. 5A-B and Table 12). […] No significant difference was observed between ASO-4.S and ASO-4.I.
The potency of ASO-4 and ASO-6.1 was further examined in iPSC-derived neurons at a later time point in differentiation. GABAergic iPSC-derived neurons were treated at 29 DIV with a 10-point ½ log dose response curve of ASO-4 and ASO-6.1 [1 nM, 3 nM, 10 nM, 30 nM, 100 nM, 300 nM, 1 μM, 3 μM, 10 μM, and 30 μM (n=3)]. At 35 DIV, the IC50 and Emax of each ASO was estimated as described above (FIG. 5C-D and Table 14). The dose response curves of ASO-4 and ASO-6.1 were not similar (Parallelism test: F(3,172)=22.7, p<0.0001).
GABAergic and glutamatergic induced pluripotent stem cell (iPSC) derived neural precursor cells (NRC-100-010-001 and GNC-301-030-001, Cellular Dynamics International, Madison Wis.) were differentiated into neurons according to the manufactures protocol. Briefly, neural precursor cells were thawed and resuspended in chemically defined medium and added to sterile-culture plates coated with poly-D-lysine and laminin. The medium was replaced 24 hr after plating and then one-half of the medium was replaced every 3-5 days afterwards.
For cultured iPSC-derived neurons, RNA isolation and cDNA synthesis were performed using the Cell-to-CT kit (Thermo Fisher Scientific) in a lysate volume of 55 μl.
The steady state RNA levels of target transcripts were measured using TaqMan quantitative reverse-transcription PCR (qRT-PCR) assays. Total reaction volume was 10 uL, including 2 μl of cDNA, 1× Gene Expression Master mix (4369016, Thermo Fisher Scientific, Waltham, Mass.), and 1× TaqMan primer assay (Thermo Fisher Scientific). Cycling conditions were 2 minutes at 50° C., 10 minutes at 95° C., and 40 cycles of 15 seconds at 95° C. and 1 minute at 60° C., with readings taken at the 60° C. step of every cycle. […]

[1] = Topo 1 μM, 14 DIV to 20 DIV, ASO-1 minus labelled treatment
[2] = Topo 1 μM, 14 DIV to 20 DIV, ASO-R minus labelled treatment
[3] = Topo 1 μM, treated 14 DIV, RNA 20 DIV, normalized to ASO-C, ASO-C minus labelled treatment
[4] = treated 14 DIV, RNA 20 DIV, 10-point dose curve, 4-parameter logistic (Hill)
[5] = Topo 1 μM, 14 DIV to 20 DIV, Topo minus labelled treatment
[6] = 14 DIV to 20 DIV, ASO-3 minus labelled treatment
[7] = 14 DIV to 20 DIV, ASO-5 minus labelled treatment
[8] = 14 DIV to 20 DIV, ASO-6 minus labelled treatment
[9] = optimized ASOs, 14 DIV to 20 DIV, parallel model, 3-parameter logistic, read-out: IC50 (M), UBE3A-AS
[10] = optimized ASOs, treated 14 DIV, RNA 20 DIV, 5-point dose curve 30 nM-3 μM, full model, 3-parameter logistic, read-out: IC50 Estimate, UBE3A-AS
[11] = treated 29 DIV, RNA 35 DIV, 10-point dose curve, full model, 4-parameter logistic (Hill), read-out: IC50 Estimate, UBE3A-AS

| Molecule | 30 μM (Mean), normalized UBE3A-AS RNA level relative to vehicle (treated 14 DIV, RNA 20 DIV) | Difference, UBE3A-AS RNA level [1] | Difference, UBE3A-AS RNA level [2] | Difference, UBE3A-AS RNA level [3] | Emax Estimate (normalized UBE3A-AS RNA level relative to vehicle) [4] | 3 μM (Mean), Emax, normalized UBE3A-AS RNA level relative to vehicle (treated 14 DIV, RNA 20 DIV) | 30 μM (Mean), normalized UBE3A-AS RNA level relative to vehicle (treated 29 DIV, RNA 35 DIV) | Difference, UBE3A-AS RNA level [5] | Difference, UBE3A-AS RNA level [6] | Difference, UBE3A-AS RNA level [7] | Difference, UBE3A-AS RNA level [8] | UBE3A-AS RNA levels relative to the control treatment (in words) (treated 14 DIV, RNA 20 DIV) | low concentration that significantly reduced UBE3A-AS RNA levels | IC50 [9] | Relative Potency (optimized ASOs, parallel model) | IC50 [10] | IC50 [11] | further results |
| --- | --- | --- | --- | --- | --- | --- | --- | --- | --- | --- | --- | --- | --- | --- | --- | --- | --- | --- |
| A^L*G^L*A^L*a*t*g*g*c*a*c*a*t*c*t*5mC^L*T^L*T^L*G^L (NNNATGGCACATCTNNNN; LNA gapmer, PS, 5-methylcytosine, chemistry not fully specified) [ASO-4.4.PS.L] | – | – | – | – | – | – | – | – | – | – | – | – | – | – | – | – | – | potency relative to the other ASOs of Cluster 1 (Cluster 1 ASOs, 18 DIV to 24 DIV): at least 3 times; Cluster (hierarchical clustering of fitted dose response curves) (candidate ASOs, Cluster 1 representing the 9 most potent ASOs): 1 |
| CC[C@@]1(O)C(=O)OCc2c1cc1n(c2=O)Cc2cc3c(CN(C)C)c(O)ccc3nc2-1 [Topotecan, reference compound] | 0.21 | 0.15 | 0.64 | 0.66 | 0.26 | – | – | – | – | – | – | – | – | – | – | – | – | IC50 (Homo sapiens, Neuron, treated 14 DIV, RNA 20 DIV, 10-point dose curve 1 nM-30 μM, full model, 4-parameter logistic (Hill), read-out: IC50 Estimate (M), UBE3A-AS): 3.37e-08 M |
| U^O*A^O*G^O*A^O*A^O*t*g*g*c*a*c*a*t*c*t*C^O*U^O*U^O*G^O*G^O [ASO-4] | 0.09 | 0.36 | 0.85 | 0.87 | −0.06 | 0.29 | 0.11 | 0.21 | 0.08 | 0.16 | 0.04 | largest effect | 3 nM | 1.49e-06 M | highest relative potency | 1.06e-06 M | 7.77e-07 M | decrease of UBE3A-AS RNA levels (treated 14 DIV, RNA 20 DIV): 87%; decrease of UBE3A-AS RNA levels (treated 59 DIV, RNA 65 DIV): 81%; Relative Potency (optimized ASOs, parallel model, listed as ASO 4.S): 1; ASO-4/Topotecan Emax ratio (equivalence test) (treated 14 DIV, RNA 20 DIV): −4.1; ASO-4/Topotecan IC50 ratio (equivalence test) (treated 14 DIV, RNA 20 DIV): 1.2; IC50 (treated 14 DIV, RNA 20 DIV, 10-point dose curve 1 nM-30 μM, full model, 4-parameter logistic (Hill), read-out: IC50 Estimate (M), UBE3A-AS): 6.13e-07 M; Emax Estimate (normalized UBE3A-AS RNA level relative to vehicle) (treated 29 DIV, RNA 35 DIV, 4-parameter logistic (Hill)): 0.08 |
| C^O*U^O*G^O*G^O*t*g*t*c*a*a*c*a*a*g*C^O*C^O*A^O*A^O [ASO-6.1] | – | – | – | – | – | 0.23 | 0.06 | – | – | – | – | – | 3 nM | 7.2e-07 M | highest relative potency | 5.2e-07 M | 5.17e-07 M | Relative Potency (optimized ASOs, parallel model, listed as ASO 6.1): 2.07; ASO-6.1/ASO-4 ratio: Emax (equivalence test) (treated 29 DIV, RNA 35 DIV): −1.3; ASO-6.1/ASO-4 ratio: IC50 (equivalence test) (treated 29 DIV, RNA 35 DIV): 1.03 |
| G^O*U^O*A^O*C^O*U^O*c*t*t*c*c*t*c*a*g*t*C^O*A^O*U^O*C^O*C^O [ASO-2] | – | 0.38 | 0.87 | 0.89 | – | – | – | 0.23 | 0.10 | 0.18 | 0.06 | largest effect | – | – | – | – | – | Difference, UBE3A-AS RNA level (14 DIV to 20 DIV, ASO-4 minus labelled treatment): 0.02 |
